The source of these data is US9663512B2, “Bicyclic heterocycle compounds and their uses in therapy” (ASTEX THERAPEUTICS LIMITED, priority 2012, dated 2017).

Assay [1] has as its system EVSA-T (human breast carcinoma). The assay is described as follows: Anti-proliferative activity, Alamar Blue assay, EVSA-T. Format: cell-based. To be noted: EVSA-T cell line, read-out: EVSA-T prolif (EC50). For orientation: The colour change of resazurin is a common sign of viable cells or microbes.
Assay [2] addresses T1, BIR3 domain of human XIAP (Homo sapiens, UniProt P98170).
T1 construct: BIR3 domain of human XIAP (residues 252-350) fused to a His-tag; His-tag (cleaved yes); made in house; host or cells: Escherichia coli
In words: XIAP in vitro competitive displacement binding assay (fluorescence polarization). To be noted: for IC50: XIAP BIR3 fluorescence polarization displacement, average (e.g. geometric mean), read-out: Xiap IC50 or PI (IC50); for inhibition at […]: at 0.12 μM; for inhibition at […] / inhibition at 0.04 µM: read-out: Xiap IC50 or PI (percent inhibition). In general terms: Polarisation of emitted light reports the rotation of a fluorescent probe.

The target of assay [3] is T2, BIR3 domain of human cIAP-1 (Homo sapiens, UniProt Q13490).
T2 construct: human cIAP-1 (residues 267-363) fused to a GST-tag; GST-tag (cleaved yes); made in house; host or cells: Escherichia coli
The assay is described as follows: cIAP-1 in vitro competitive displacement binding assay (fluorescence polarization). The settings on record: at 0.012 μM; read-out: cIAP1 IC50 or PI (percent inhibition).

One may read the EC50 as the concentration at which the effect is half-maximal. What is called IC50 is the point on the concentration scale where inhibition reaches its midpoint. Usually inhibition stands for the relative decrease from the control value, in per cent.

Structures can show the parent of a compound that is named as a salt. Where two headings read alike, the source gives them in different places. Bounds are passed on as bounds.

T1 sequence (P98170 252-350): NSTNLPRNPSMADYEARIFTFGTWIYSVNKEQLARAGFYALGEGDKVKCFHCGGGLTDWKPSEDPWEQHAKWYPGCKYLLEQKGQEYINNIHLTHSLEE
T2 sequence (Q13490 267-363): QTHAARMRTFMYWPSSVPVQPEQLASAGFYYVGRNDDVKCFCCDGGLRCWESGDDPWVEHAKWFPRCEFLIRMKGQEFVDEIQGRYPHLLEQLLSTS

As to `Cc1cn(C[C@H]2CN[C@H](C)CN2CC(=O)N2CC(C)(C)c3ncc(Cc4ccc(F)cc4)cc32)cn1` (single isomer, unassigned) [Example 13, dihydrochloride], in assay [1] (72 hours), the concentration for a half-maximal effect (EC50) came out at 9.9 nM.
Turning to `Cc1cncn1C[C@H]1CN[C@H](C)CN1CC(=O)N1CC(C)(C)c2ncc(Cc3ccc(F)cc3)cc21` (single isomer, unassigned) [Example 14, dihydrochloride], the EC50 in assay [1] (72 hours) came to 5.9 nM.
With `Cc1cnn(C[C@H]2CN[C@H](C)CN2CC(=O)N2CC(C)(C)c3ncc(Cc4ccc(F)cc4)cc32)c1C` (single isomer, unassigned) [Example 20, dihydrochloride], the EC50 was less than 1000 nM in assay [1] (72 hours) and 2.1 nM in assay [1] (EVSA-T, 72 h).
As to `Cc1cc(C)n(C[C@H]2CN[C@H](C)CN2CC(=O)N2CC(C)(C)c3ncc(Cc4ccc(F)cc4)cc32)n1` [Example 1, 2-[(2R,5R)-2-[(3,5-Dimethyl-1H-pyrazol-1-yl)methyl]-5-methylpiperazin-1-yl]-1-{6-[(4-fluorophenyl)methyl]-3,3-dimethyl-1H,2H,3H-pyrrolo[3,2-b]pyridin-1-yl}ethan-1-one, dihydrochloride], the IC50 in assay [2] was 91 nM.
On to `Cc1nccn1C[C@H]1CN[C@H](C)CN1CC(=O)N1CC(C)(C)c2ncc(Cc3ccc(F)cc3)cc21` [Example 2, 1-{6-[(4-Fluorophenyl)methyl]-3,3-dimethyl-1H,2H,3H-pyrrolo[3,2-b]pyridin-1-yl}-2-[(2R,5R)-5-methyl-2-[(2-methyl-1H-imidazol-1-yl)methyl]piperazin-1-yl]ethan-1-one, dihydrochloride], for which the results for the inhibition at […] in assay [2] and in assay [3] were 65% and 100%, respectively.
Regarding `Cc1ncn(C[C@H]2CN[C@H](C)CN2CC(=O)N2CC(C)(C)c3ncc(Cc4ccc(F)cc4)cc32)c1C` [Example 3, 2-[(2R,5R)-2-[(4,5-Dimethyl-1H-imidazol-1-yl)methyl]-5-methylpiperazin-1-yl]-1-{6-[(4-fluorophenyl)methyl]-3,3-dimethyl-1H,2H,3H-pyrrolo[3,2-b]pyridin-1-yl}ethan-1-one, dihydrochloride], the inhibition at 0.04 µM in assay [2] was determined as 34%. Besides, the inhibition at […] in assay [3] turned out to be 99%.
In the same order, the values of `CCc1nccn1C[C@H]1CN[C@H](C)CN1CC(=O)N1CC(C)(C)c2ncc(Cc3ccc(F)cc3)cc21` [Example 4, 2-[(2R,5R)-2-[(2-Ethyl-1H-imidazol-1-yl)methyl]-5-methylpiperazin-1-yl]-1-{6-[(4-fluorophenyl)methyl]-3,3-dimethyl-1H,2H,3H-pyrrolo[3,2-b]pyridin-1-yl}ethan-1-one, dihydrochloride] are 35% and 96%.
As to `C[C@@H]1CN(CC(=O)N2CC(C)(C)c3ncc(Cc4ccc(F)cc4)cc32)[C@@H](Cn2ccnc2C(F)(F)F)CN1` [Example 5, 1-{6-[(4-Fluorophenyl)methyl]-3,3-dimethyl-1H,2H,3H-pyrrolo[3,2-b]pyridin-1-yl}-2-[(2R,5R)-5-methyl-2-{[2-(trifluoromethyl)-1H-imidazol-1-yl]methyl}piperazin-1-yl]ethan-1-one, dihydrochloride], the IC50 in assay [2] is 110 nM. Moreover, the inhibition at […] in assay [3] was determined as 96%.
`C[C@@H]1CN(CC(=O)N2CC(C)(C)c3ncc(Cc4ccc(F)cc4)cc32)[C@@H](Cn2ccnc2)CN1` [Example 6, 1-{6-[(4-Fluorophenyl)methyl]-3,3-dimethyl-1H,2H,3H-pyrrolo[3,2-b]pyridin-1-yl}-2-[(2R,5R)-2-(1H-imidazol-1-ylmethyl)-5-methylpiperazin-1-yl]ethan-1-one, dihydrochloride]: the inhibition at […] in assay [2] is 54%.
With `Cc1cn(C[C@H]2CN[C@H](C)CN2CC(=O)N2CC(C)(C)c3ncc(Cc4ccc(F)cc4)cc32)c(C)n1` [Example 7, 2-[(2R,5R)-2-[(2,4-Dimethyl-1H-imidazol-1-yl)methyl]-5-methylpiperazin-1-yl]-1-{6-[(4-fluorophenyl)methyl]-3,3-dimethyl-1H,2H,3H-pyrrolo[3,2-b]pyridin-1-yl}ethan-1-one, dihydrochloride], in assay [1] (72 hours), the concentration for a half-maximal effect (EC50) amounted to 2.9 nM.
`C[C@@H]1CN(CC(=O)N2CC(C)(C)c3ncc(Cc4ccc(F)cc4)cc32)[C@@H](Cn2ccnc2Cl)CN1` [Example 8, 2-[(2R,5R)-2-[(2-Chloro-1H-imidazol-1-yl)methyl]-5-methylpiperazin-1-yl]-1-{6-[(4-fluorophenyl)methyl]-3,3-dimethyl-1H,2H,3H-pyrrolo[3,2-b]pyridin-1-yl}ethan-1-one, dihydrochloride]: the inhibition at 0.04 µM in assay [2] was 36%. Also, the inhibition at […] in assay [3] was 100%.
In the case of `Cc1ccc(=O)n(C[C@H]2CN[C@H](C)CN2CC(=O)N2CC(C)(C)c3ncc(Cc4ccc(F)cc4)cc32)c1` [Example 9, 1-{[(2R,5R)-1-(2-{6-[(4-Fluorophenyl)methyl]-3,3-dimethyl-1H,2H,3H-pyrrolo[3,2-b]pyridin-1-yl}-2-oxoethyl)-5-methylpiperazin-2-yl]methyl}-5-methyl-1,2-dihydropyridin-2-one, dihydrochloride], the inhibition at 0.04 µM in assay [2] turned out to be 35%. For the same compound, in assay [3], the inhibition at […] came out at 92%.
Take `C[C@@H]1CN(CC(=O)N2CC(C)(C)c3ncc(Cc4ccc(F)cc4)cc32)[C@@H](Cn2ccnc2C#N)CN1` [Example 10, 1-{[(2R,5R)-1-(2-{6-[(4-Fluorophenyl)methyl]-3,3-dimethyl-1H,2H,3H-pyrrolo[3,2-b]pyridin-1-yl}-2-oxoethyl)-5-methylpiperazin-2-yl]methyl}-1H-imidazole-2-carbonitrile, L-lactate]: the EC50 in assay [1] (EVSA-T, 72 h) was 6.4 nM.
Consider `Cc1nc(Cl)cn1C[C@H]1CN[C@H](C)CN1CC(=O)N1CC(C)(C)c2ncc(Cc3ccc(F)cc3)cc21` [Example 11, 2-[(2R,5R)-2-[(4-Chloro-2-methyl-1H-imidazol-1-yl)methyl]-5-methylpiperazin-1-yl]-1-{6-[(4-fluorophenyl)methyl]-3,3-dimethyl-1H,2H,3H-pyrrolo[3,2-b]pyridin-1-yl}ethan-1-one, dihydrochloride], for which the concentration for a half-maximal effect (EC50) in assay [1] (EVSA-T, 72 h) came out at 1.8 nM.
In the case of `Cc1cnnn1C[C@H]1CN[C@H](C)CN1CC(=O)N1CC(C)(C)c2ncc(Cc3ccc(F)cc3)cc21` [Example 15, 1-{6-[(4-Fluorophenyl)methyl]-3,3-dimethyl-1H,2H,3H-pyrrolo[3,2-b]pyridin-1-yl}-2-[(2R,5R)-5-methyl-2-[(5-methyl-1H-1,2,3-triazol-1-yl)methyl]piperazin-1-yl]ethan-1-one, dihydrochloride], the EC50 in assay [1] (72 hours) worked out at 9.4 nM. In addition, the IC50 in assay [2] came out at 220 nM.
Take `Cc1cn(C[C@H]2CN[C@H](C)CN2CC(=O)N2CC(C)(C)c3ncc(Cc4ccc(F)cc4)cc32)nn1` [Example 16, 1-{6-[(4-Fluorophenyl)methyl]-3,3-dimethyl-1H,2H,3H-pyrrolo[3,2-b]pyridin-1-yl}-2-[(2R,5R)-5-methyl-2-[(4-methyl-1H-1,2,3-triazol-1-yl)methyl]piperazin-1-yl]ethan-1-one, dihydrochloride]: the EC50 in assay [1] (72 hours) turned out to be 8.5 nM.
As for `Cc1ncnn1C[C@H]1CN[C@H](C)CN1CC(=O)N1CC(C)(C)c2ncc(Cc3ccc(F)cc3)cc21` [Example 21, 1-{6-[(4-Fluorophenyl)methyl]-3,3-dimethyl-1H,2H,3H-pyrrolo[3,2-b]pyridin-1-yl}-2-[(2R,5R)-5-methyl-2-[(5-methyl-1H-1,2,4-triazol-1-yl)methyl]piperazin-1-yl]ethan-1-one], the inhibition at […] in assay [2] was determined as 61%; in assay [3], 95%.
As to `Cc1cc(C[C@H]2CN[C@H](C)CN2CC(=O)N2CC(C)(C)c3ncc(Cc4ccc(F)cc4F)cc32)n(C)n1` [Example 22, 1-{6-[(2,4-Difluorophenyl)methyl]-3,3-dimethyl-1H,2H,3H-pyrrolo[3,2-b]pyridin-1-yl}-2-[(2S,5R)-2-[(1,3-dimethyl-1H-pyrazol-5-yl)methyl]-5-methylpiperazin-1-yl]ethan-1-one, dihydrochloride], in assay [2], the inhibition at 0.04 µM stood at 47%.
For the compound `Cc1cn(C[C@H]2CN[C@H](C)CN2CC(=O)N2CC(C)(C)c3ncc(Cc4ccc(F)cc4)cc32)ccc1=O` [Example 38, 1-{[(2R,5R)-1-(2-{6-[(4-Fluorophenyl)methyl]-3,3-dimethyl-1H,2H,3H-pyrrolo[3,2-b]pyridin-1-yl}-2-oxoethyl)-5-methylpiperazin-2-yl]methyl}-3-methyl-1,4-dihydropyridin-4-one, dihydrochloride], the inhibition at 0.04 µM in assay [2] came to 48%. The inhibition at […] in assay [3] came to 94%.
